Read-outs that look alike come from different tables or passages of the source.
What was measured:
medaka T1r2a/T1r3LBD = medaka T1r2a/T1r3LBD (Oryzias latipes, UniProt A0A173M094+A0A173M0G2); test: Differential scanning fluorimetry (DSF) thermal shift ligand-binding assay; set-up: species or system O. latipes; conditions: for ΔTm: average ± s.e.m., n = 4; for potency estimated from few doses: ΔH0 72.1 kcal mol-1, read-out: Kd-app estimated at a single ligand concentration
Procedure: The protein sample was prepared as described previously. Briefly, Drosophila S2 cells (Invitrogen) stably expressing C-terminal FLAG-tagged T1r2aLBD and T1r3LBD [11, 21] were cultured in ExpressFiveSFM (LifeTechnologies) for five days at 27 °C. The T1r2a/T1r3-LBD protein was purified from the culture medium by the use of ANTI-FLAG M2 Affinity Gel (SIGMA). The purified protein was dialyzed against the assay buffer (20 mM Tris-HCl, 300 mM NaCl, 2 mM CaCl2, pH 8.0).
The protein sample (~1 μg) was mixed with Protein Thermal Shift Dye (Applied Biosystems) and 10~10,000 μM concentration of each amino acid in 20 μL of assay buffer and loaded to a MicroAmpR Fast Optical 48-Well Reaction Plate (Applied Biosystems). Specifically, to minimize the changes of the chemical and optical condition, the amino acid solutions were prepared by the exact same buffer used for the final dialysis of the protein, followed by the re-adjustment of the pH to ~ 8.0 by addition of either NaOH or HCl, and mixed with the protein diluted with the same buffer.
Fluorescent intensity was measured by the StepOne Real-Time PCR System (Applied Biosystems). The temperature was raised from 25 °C to 99 °C with a velocity of 0.022 °C/sec. The reporter and quencher for detection were set as “ROX” and “none”, respectively. Apparent melting transition temperature (Tm) was determined by the use of the maximum of the derivatives of the melt curve (dFluorescence/dT) by Protein Thermal Shift Software version 1.3 (Applied Biosystems).
The apparent dissociation constant (Kd-app) derived from the DSF results was estimated based on Eq 1 proposed by Schellman, assuming that the unfolding of the protein is reversible: ΔTm=Tm−T0=TmT0R/ΔH^0ln(1+[L]/Kd-app) (1) where [L] is the ligand concentration; Tm and T0 are the apparent melting transition temperatures in the presence and absence of the ligand; R is the gas constant; ΔH^0 is the enthalpy of unfolding at T0, assuming that there are no significant variations under the tested conditions. If the melt curves show biphasic profiles, the second (or the right side) Tm values were adopted for calculation, as described in the Results section.
For multiple regression analyses shown in Fig 2B, the apparent Tm values determined at different ligand concentrations were fitted to Eq 1 by using KaleidaGraph (Synergy Software), assuming that the change of the dissociation constant accompanied by the Tm shift is negligible.

[1] = biological target: T1r2a/T1r3 full-length receptor (Oryzias latipes, UniProt A0A173M094+A0A173M0G2); test: Ca2+-flux receptor response assay in Flip-In 293 cells stably expressing full-length T1r2a, T1r3 and Gα16-gust44; type: cell-based, O. latipes; conditions: for ΔRFU: average ± s.e.m.; for EC50: ΔRFUmax 104.3, read-out: EC50-est; for pEC50-est: log 1/EC50-est
Procedure: The Ca^2+-flux assay was performed using Flip-In 293 cell line (Life Technologies) stably expressing full-length T1r2a, T1r3, and Gα16-gust44 as described previously. The response stimulated by either 5 or 10 mM amino acid was represented asΔRFU (delta relative fluorescence unit) defined as the maximum fluorescence intensity induced by the addition of the amino acid, subtracted with that of an assay buffer in the absence of amino acid.

[2] = cited from earlier work; for logKd_CW (polarity): transfer from cyclohexane to an aqueous solution, ref Radzicka & Wolfenden, Biochemistry, 27, 1664 (1988); for Es'c (steric effects) / πα (hydrophobicity) / HP (hydration potential): α-substituent group; for Es'c (steric effects) / πα (hydrophobicity): ref Akamatsu et al., J. Pharm. Sci., 83, 1026 (1994); for HP (hydration potential): ref Wolfenden et al., Biochemistry, 20, 849 (1981); for Hydropathy Index: hydrophobicity/hydrophilicity, ref Kyte & Doolittle, J. Mol. Biol., 157, 105 (1982); for pI: ref Handbook of Chemistry and Physics, CRC Press
[3] = from ΔTm at 0.1 mM via Eq 1, T0 326.1 K
[4] = from ΔTm at 10 mM via Eq 1, T0 326.1 K
[5] = log 1/Kd-app, converted from S1 Table values (10 mM; L-Ala 1 mM, L-Gln 0.1 mM)
[6] = 5 mM amino acid, n = 6 (n = 12 for L-glutamine)
[7] = estimated from ΔRFU at 10 mM by Hill equation
[8] = from ΔTm at 1 mM via Eq 1, T0 326.1 K

Sequence of medaka T1r2a/T1r3LBD (A0A173M094 entry or part of it): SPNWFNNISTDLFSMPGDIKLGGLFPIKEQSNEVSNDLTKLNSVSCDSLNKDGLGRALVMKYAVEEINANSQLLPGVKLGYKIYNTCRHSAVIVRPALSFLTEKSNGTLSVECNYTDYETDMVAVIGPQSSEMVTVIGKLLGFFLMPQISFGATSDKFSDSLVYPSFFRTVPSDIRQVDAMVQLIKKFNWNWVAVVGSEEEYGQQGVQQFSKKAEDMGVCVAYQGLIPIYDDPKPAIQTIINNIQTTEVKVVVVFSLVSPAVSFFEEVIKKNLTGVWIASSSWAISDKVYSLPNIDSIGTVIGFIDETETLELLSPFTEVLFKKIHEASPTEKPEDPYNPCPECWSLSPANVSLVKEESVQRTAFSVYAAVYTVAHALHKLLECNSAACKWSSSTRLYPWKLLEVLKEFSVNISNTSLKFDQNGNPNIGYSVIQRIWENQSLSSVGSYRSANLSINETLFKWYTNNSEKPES
Sequence of medaka T1r2a/T1r3LBD (A0A173M0G2 entry or part of it): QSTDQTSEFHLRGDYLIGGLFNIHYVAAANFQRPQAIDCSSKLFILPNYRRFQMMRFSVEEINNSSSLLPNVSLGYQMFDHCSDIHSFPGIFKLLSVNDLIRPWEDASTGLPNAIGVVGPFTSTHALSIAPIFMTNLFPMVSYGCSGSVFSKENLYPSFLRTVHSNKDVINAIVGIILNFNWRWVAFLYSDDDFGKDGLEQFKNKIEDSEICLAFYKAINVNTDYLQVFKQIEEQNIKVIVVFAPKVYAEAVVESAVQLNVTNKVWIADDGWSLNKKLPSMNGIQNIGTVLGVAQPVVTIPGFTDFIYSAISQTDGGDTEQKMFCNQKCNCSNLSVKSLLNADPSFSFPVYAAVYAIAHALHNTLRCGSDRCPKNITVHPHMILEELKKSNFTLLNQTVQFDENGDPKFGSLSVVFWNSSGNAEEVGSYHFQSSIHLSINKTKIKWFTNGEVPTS
Sequence of T1r2a/T1r3 full-length receptor (A0A173M0G2 entry or part of it): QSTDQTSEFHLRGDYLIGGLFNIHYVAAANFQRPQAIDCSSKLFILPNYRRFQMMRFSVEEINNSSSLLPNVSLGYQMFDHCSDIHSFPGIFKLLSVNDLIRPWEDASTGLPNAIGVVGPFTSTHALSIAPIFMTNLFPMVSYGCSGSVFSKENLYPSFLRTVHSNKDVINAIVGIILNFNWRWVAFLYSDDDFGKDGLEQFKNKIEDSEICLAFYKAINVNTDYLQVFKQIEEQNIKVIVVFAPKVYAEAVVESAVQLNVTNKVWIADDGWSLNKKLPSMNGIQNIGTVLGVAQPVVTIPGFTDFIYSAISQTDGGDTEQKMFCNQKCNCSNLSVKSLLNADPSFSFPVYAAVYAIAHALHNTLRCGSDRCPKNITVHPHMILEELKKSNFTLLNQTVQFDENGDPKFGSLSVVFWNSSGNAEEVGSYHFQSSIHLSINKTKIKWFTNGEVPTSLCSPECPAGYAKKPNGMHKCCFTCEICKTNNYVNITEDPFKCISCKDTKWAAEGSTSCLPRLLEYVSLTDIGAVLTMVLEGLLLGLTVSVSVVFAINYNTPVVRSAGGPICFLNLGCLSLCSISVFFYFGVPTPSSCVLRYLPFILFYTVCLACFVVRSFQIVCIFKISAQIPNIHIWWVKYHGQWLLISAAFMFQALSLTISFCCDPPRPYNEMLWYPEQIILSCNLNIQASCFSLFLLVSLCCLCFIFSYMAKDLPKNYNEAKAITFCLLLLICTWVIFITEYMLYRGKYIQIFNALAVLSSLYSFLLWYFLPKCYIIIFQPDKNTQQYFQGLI
Sequence of T1r2a/T1r3 full-length receptor (A0A173M094 entry or part of it): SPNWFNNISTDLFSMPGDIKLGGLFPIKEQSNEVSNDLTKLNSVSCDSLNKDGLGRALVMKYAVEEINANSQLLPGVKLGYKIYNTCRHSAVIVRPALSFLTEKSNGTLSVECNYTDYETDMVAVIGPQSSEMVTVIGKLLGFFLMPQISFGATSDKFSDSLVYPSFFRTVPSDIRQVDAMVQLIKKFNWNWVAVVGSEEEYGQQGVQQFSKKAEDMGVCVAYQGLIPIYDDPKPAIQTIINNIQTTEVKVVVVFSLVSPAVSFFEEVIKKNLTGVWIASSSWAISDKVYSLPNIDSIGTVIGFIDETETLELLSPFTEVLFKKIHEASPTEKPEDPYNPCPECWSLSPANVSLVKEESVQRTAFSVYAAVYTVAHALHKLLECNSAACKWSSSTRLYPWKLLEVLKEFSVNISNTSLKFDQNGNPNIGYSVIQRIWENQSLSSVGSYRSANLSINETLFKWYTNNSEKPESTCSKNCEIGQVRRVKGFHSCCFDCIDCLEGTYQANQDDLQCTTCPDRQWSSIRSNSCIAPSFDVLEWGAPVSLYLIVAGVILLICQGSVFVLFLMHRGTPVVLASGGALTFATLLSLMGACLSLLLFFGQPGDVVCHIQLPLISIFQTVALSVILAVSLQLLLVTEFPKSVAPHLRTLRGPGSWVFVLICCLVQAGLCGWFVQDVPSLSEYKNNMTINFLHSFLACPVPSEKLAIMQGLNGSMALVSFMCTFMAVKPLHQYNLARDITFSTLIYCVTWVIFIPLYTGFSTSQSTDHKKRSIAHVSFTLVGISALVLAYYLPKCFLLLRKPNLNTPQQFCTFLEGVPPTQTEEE

Row | SMILES | ΔTm (medaka T1r2a/T1r3LBD; 0.1 mM amino acid) | ΔTm (medaka T1r2a/T1r3LBD; 1 mM amino acid) | ΔTm (medaka T1r2a/T1r3LBD; 10 mM amino acid) | potency estimated from few doses (medaka T1r2a/T1r3LBD; [3]) | potency estimated from few doses (medaka T1r2a/T1r3LBD; [4]) | pKd-app (medaka T1r2a/T1r3LBD; [5]) | ΔRFU [1, 6] | ΔRFU ([1]; 10 mM amino acid, n = 6) | EC50 [1, 7] | pEC50-est ([1]; from response at 10 mM) | logKd_CW (polarity) [2] | Es'c (steric effects) [2] | πα (hydrophobicity) [2] | HP (hydration potential) [2] | Hydropathy Index [2] | pI [2] | potency estimated from few doses (medaka T1r2a/T1r3LBD; [8]) | also measured
1 | CC(C)C[C@H](N)C(=O)O [L-Leu] | 0.08 ± 0.09 K | -0.94 ± 0.07 K | 6.91 ± 0.05 K | 3.49 mM | 1.11 mM | 2.96 | 0.933 ± 1.91 | 27.8 ± 5.89 | 27.5 mM | 1.56 | -3.62 | -1.44 | 1.52 | 2.28 |  |  |  | 
2 | N[C@@H](CO)C(=O)O [L-Ser] | -0.14 ± 0.03 K | -1.20 ± 0.03 K | 7.32 ± 0.06 K |  | 0.956 mM | 3.02 | 11.5 ± 2.07 | 33.5 ± 7.59 | 21.1 mM | 1.67 | 2.49 | -0.48 | -0.19 | -5.06 | -0.8 | 5.68 |  | EC50 ([1]; estimated from ΔRFU at 5 mM by Hill equation): 40.5 mM; pEC50-est ([1]; from response at 5 mM): 1.39
3 | C[C@@H](O)[C@H](N)C(=O)O [L-Thr] | -0.06 ± 0.09 K | -1.27 ± 0.08 K | 6.99 ± 0.09 K |  | 1.08 mM | 2.97 | 3.20 ± 1.51 | 18.2 ± 6.01 | 47.4 mM | 1.32 | 1.89 | -0.73 | 0.07 | -4.88 | -0.7 | 5.6 |  | 
4 | CC[C@H](C)[C@H](N)C(=O)O [L-Ile] | -0.50 ± 0.11 K | -0.57 ± 0.07 K | 2.89 ± 2.40 K |  | 6.04 mM | 2.22 | 2.90 ± 2.82 | 30.5 ± 6.26 | 24.2 mM | 1.62 | -3.62 | -1.81 | 1.43 | 2.15 | 4.5 | 6.02 |  | 
5 | NC(=O)C[C@H](N)C(=O)O [L-Asn] | 0.12 ± 0.07 K | 0.38 ± 0.06 K | 4.36 ± 0.99 K | 2.4 mM | 3 mM | 2.52 | 0.460 ± 2.58 | 15.7 ± 6.13 | 56.3 mM | 1.25 | 4.88 | -0.98 | -0.52 | -9.68 | -3.5 | 5.41 | 7.33 mM | 
6 | N[C@@H](Cc1ccccc1)C(=O)O [L-Phe] | 0.30 ± 0.04 K | 1.04 ± 0.12 K | 3.53 ± 0.05 K | 0.918 mM | 4.37 mM | 2.36 | 2.08 ± 2.32 | 22.4 ± 5.78 | 36.5 mM | 1.44 | -2.19 | -0.9 | 1.78 | -0.76 | 2.8 | 5.48 | 2.37 mM | 
7 | CSCC[C@H](N)C(=O)O [L-Met] | 0.45 ± 0.11 K | 6.17 ± 0.05 K | 8.85 ± 0.06 K | 0.604 mM | 0.562 mM | 3.25 | -2.52 ± 1.72 | 21.8 ± 7.73 | 37.9 mM | 1.42 | -1.73 | -1.03 | 0.99 | -1.48 | 1.9 | 5.74 | 0.146 mM | 
8 | N[C@@H](CC(=O)O)C(=O)O [L-Asp, L-aspartate] | -0.06 ± 0.17 K | -1.71 ± 0.19 K | 0.74 ± 0.05 K |  | 34.9 mM |  | -4.00 ± 1.10 | -9.43 ± 1.83 |  |  | 3.27 | -0.98 | 0.05 | -10.95 | -3.5 | 2.77 |  | effect on thermal stability / Tm shift of T1r2a/T1r3LBD (in words) (medaka T1r2a/T1r3LBD; DSF, 0.1-10 mM amino acid): destabilized the protein; Kd (medaka T1r2a/T1r3LBD; log 1/Kd-app, converted from S1 Table values (10 mM; L-Ala 1 mM, L-Gln 0.1 mM), read-out: pKd-app (converted)): 34.7 mM
